Where two headings read alike, the source gives them in different places.
What was measured:
[1] = molecular target: Vacuolar ATPase in bovine chromaffin cells membranes (BCG) (Bos taurus, UniProt P23956+Q29466); experiment: Vacuolar ATPase inhibition in bovine chromaffin cells membranes (BCG); type: biochemical; settings: read-out: ATPase activity (IC50) BCG; bovine chromaffin cell membranes
Protocol: Inhibition of bafilomycin sensitive ATPase activity is assayed by measuring the release of inorganic phosphate during 30 minutes of incubation, at 37° C., of the human osteoclastoma microsomal fraction in 96-well plates. The reaction medium contains 1 mM ATP, 10 mM Hepes-Tris buffer pH 8, 50 mM KCl, 5 μM valinomycin, 5 μM nigericin, 1 mM CDTA-Tris, 100 μM ammonium molybdate, 0.2 M sucrose and the microsomal fraction (20 μg protein/ml). The reaction is initiated by adding MgSO4 and terminated, after 30 minutes, by adding 4 volumes of the reagent malachite green, prepared according to Chan K., Anal. Biochem. 157, 375-380, 1986.
1.2 Determination of Vacuolar ATpase Inhibition in the Bovine Chromaffin Cells Membranes (BCG)
About 20 adrenal glands (Cidon S., J. Biol. Chem. 258, 2892-2898, 1983) are removed from healthy bovines; the medulla is quickly separated from the cortex, which is discarded. The medulla is homogenised at 4° C. with a suitable medium at pH 7.5, then filtered. The remaining solid material is further homogenised, filtered and recombined with the preceding filtrate, resuspended and centrifuged at 1000 g for 15 minutes; the supernatant obtained is centrifuged at 10000 g for 20 minutes. The resultant pellet is resuspended and stratified through a sucrose gradient formed of a lower part of 15 ml 1.5 M sucrose and an upper part of 10 ml 1.2 M sucrose. After overnight centrifugation at 4° C. with a SW28 rotor at 20000 rpm, the chromaffiln cells sediment into a pellet. This latter is resuspended, centrifuged at 3000 g for 10 minutes, and the supernatant obtained is centrifuged at 200000 g for 60 minutes. The pellet is then resuspended in 4 ml of a suitable medium containing 0.2 μg/ml pepstatin A and 0.4 μg/ml leupeptin and stored under liquid nitrogen.
The method for ATPase inhibition assay is the same as that followed for the osteoclastoma.

[2] = system: HT29 cells; experiment: Antiproliferative activity, 72 h treatment, SRB assay, HT29; type: cell-based, human; settings: Homo sapiens
Protocol: (§1) HT29 and HT29/Mit (line obtained by prolonged exposure to mitoxantrone, and characterised by overexpression of BCRP, which confers cross resistance to topotecan, irinotecan and to its metabolite SN38): maintained in McCoy 5A medium+10% FCS.
(§2) 2.2 Scheme of the Antiproliferative Activity Experiment (Treatment Time: 72 Hours)
(§3) The cells (HT29 and HT29/Mit: 40,000 cells/ml, LoVo, LoVo/Dx and HCT116: 50,000 cells/ml) are seeded in 100 μl of the respective culture media in 96-well plates. 24 hours after seeding, an aliquot (10 μl) of drug at the various concentrations is added. In the samples in which the effect of the combination of two compounds is to be tested the inhibitor is added immediately before the cytotoxic. For each dose or combination of doses/drugs the effect of the treatment is determined in 4-8 replicates.
(§4) After 72 hours of treatment the antiproliferative effect is evaluated using the sulforhodamine B (SRB) assay: the cells are fixed by adding 25 μl of 50% TCA to each well and left for 1 hour at 4° C. After washing them with water and allowing them to dry, 100 μl of 0.4% SRB in 1% acetic acid are added and left for 30 minutes at room temperature. After 4 washes in 1% acetic acid, they are left to dry then the dye fixed by the proteins is dissolved under basic conditions with 100 μl 10 mM cold Tris and the solution is read using a spectrophotometer at 550 nm.
(§5) Percentage cell growth is calculated as the optical density of treated samples compared to the optical density of controls (untreated cells).

[3] = system: HT29/Mit cells; experiment: Antiproliferative activity, 72 h treatment, SRB assay, HT29/Mit resistant line; type: cell-based, human; settings: Homo sapiens
Protocol: as §1, §2, §3, §4, §5

[4] = system: HepG2 cells; experiment: Antiproliferative activity, 48 h treatment, ATPlite luminescence assay, HepG2; type: cell-based, human; settings: Homo sapiens; HepG2, 48 h treatment; read-out: Antiproliferative activity (IC50 ± S.D.) HepG2 48 h treatment
Protocol: HepG2: maintained in EMEM medium+10% FCS.
2.3 Scheme of the Antiproliferative Activity Experiment (Treatment Time: 48 Hours)
The cells (concentration: 30,000 cells/ml) are seeded in 90 μl of the respective culture media in 96-well plates. 24 hours after seeding, an aliquot (10 μl) of the drug at the various concentrations is added (for each concentration there are 3 replicates). After 48 hours of treatment the antiproliferative effect is evaluated with a luminescence assay (Perkin Elmer Life Sciences ATPlite):
50 μl of a lysis solution are added to each well followed by an equal volume of a solution containing luciferase and D-luciferin. The ATP present in all the metabolically active cells brings about the transformation reaction of D-luciferin, catalysed by luciferase, to produce a luminescent signal as described in the following scheme: ATP+D-luciferin+O2→Oxyluciferin+AMP+PP1+CO2+Light
The luminescence produced (expressed in counts per second, CPS) is measured by means of a microplate scintillation analyzer (Perkin Elmer Life Sciences Top Count).
Percentage inhibition of luminescence in the treated cells compared to the control is calculated; concentration-response curves are then analysed using Grafit v.5.0.

[5] = system: HT29/Mit human colon carcinoma xenografts; experiment: HT29/Mit human colon carcinoma xenograft, antitumor activity; type: in vivo, athymic Swiss nude mice
Source text: 1.1 Model of HT29/Mit human colon carcinoma xenografts-Antitumor activity Female athymic Swiss nude mice (8-10 weeks old) (Charles River, Calco, Italy) were used for the experiments. The animals were maintained at constant temperature and humidity, and were allowed to eat and drink freely. The experimental protocol was approved by the Ethics Committee for Animal Experimentation of the Istituto Nazionale Tumori of Milan. The antitumour effectiveness of the compounds of the invention under discussion was tested on athymic mouse models implanted with HT29 and/or HT29/Mit tumour cells: this latter variety is highly resistant to topotecan treatment. The tumour cells were implanted in vivo via subcutaneous injection of 10^7 cells taken from in vitro cultures. Randomized groups of five mice with bilateral subcutaneous tumours were used for the experiment. Topotecan or other known antitumour agents (dissolved in distilled water or an appropriate solvent) and the compounds of the invention (dissolved in Cremophor EL: ethanol: saline solution in the proportions 5:5:90, or in an appropriate solvent) were administered orally from the third day, alone or in combination, in agreement with a treatment scheme selected in an appropriate manner depending on the type of compound to be studied. The weight (or volume) of the tumour in treated mice compared to controls is represented graphically on the y-axis against time (x-axis).

Sequence of Vacuolar ATPase in bovine chromaffin cells membranes (BCG) (P23956 whole entry, looked up): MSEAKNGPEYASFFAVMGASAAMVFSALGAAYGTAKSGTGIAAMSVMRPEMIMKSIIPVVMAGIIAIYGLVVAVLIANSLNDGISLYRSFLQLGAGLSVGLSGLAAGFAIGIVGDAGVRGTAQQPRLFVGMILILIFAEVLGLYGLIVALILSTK
Sequence of Vacuolar ATPase in bovine chromaffin cells membranes (BCG) (Q29466 whole entry, looked up): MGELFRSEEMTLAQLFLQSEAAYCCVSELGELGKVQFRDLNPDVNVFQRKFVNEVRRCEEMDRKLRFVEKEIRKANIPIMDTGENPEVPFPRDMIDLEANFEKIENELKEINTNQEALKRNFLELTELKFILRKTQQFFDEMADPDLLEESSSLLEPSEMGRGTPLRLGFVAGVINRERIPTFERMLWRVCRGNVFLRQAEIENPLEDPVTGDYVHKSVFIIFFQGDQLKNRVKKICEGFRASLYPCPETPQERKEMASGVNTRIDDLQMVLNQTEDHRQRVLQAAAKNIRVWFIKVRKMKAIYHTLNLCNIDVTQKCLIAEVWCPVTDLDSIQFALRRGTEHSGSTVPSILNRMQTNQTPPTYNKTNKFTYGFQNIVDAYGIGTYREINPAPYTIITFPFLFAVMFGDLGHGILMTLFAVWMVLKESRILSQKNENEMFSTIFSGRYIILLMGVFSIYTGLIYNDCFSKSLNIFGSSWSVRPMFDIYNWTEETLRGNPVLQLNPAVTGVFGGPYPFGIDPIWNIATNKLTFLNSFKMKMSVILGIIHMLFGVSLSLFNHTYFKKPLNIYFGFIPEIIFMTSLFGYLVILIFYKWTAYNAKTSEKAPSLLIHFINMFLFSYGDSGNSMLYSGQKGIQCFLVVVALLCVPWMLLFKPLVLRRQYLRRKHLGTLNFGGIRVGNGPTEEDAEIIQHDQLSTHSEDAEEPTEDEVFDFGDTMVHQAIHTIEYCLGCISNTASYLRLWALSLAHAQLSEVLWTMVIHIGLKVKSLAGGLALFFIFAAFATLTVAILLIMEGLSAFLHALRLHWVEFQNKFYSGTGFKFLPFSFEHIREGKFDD

COC(=O)c1[nH]c2cc(OC)c(OC)cc2c1-c1ccc(OC)cc1 [Example 1, 5,6-Dimethoxy-3-(4-methoxy-phenyl)-1H-indole-2-carboxylic acid methyl ester] was tested. Which IC50 [1] did it give?
Its IC50 is 0.644 µM.

What about the IC50 ([2]; HT-29, HT29, after 72 hours of treatment, range stated for the group, read-out: IC50 values in the sensitive line) of the same molecule?
The IC50 was 5 to 42 µM.

And the IC50 ([2]; HT-29, 72 h treatment, read-out: Antiproliferative activity (IC50 ± S.D.) HT-29 72 h treatment)?
The IC50 was 14.4 ± 2.1 µM.

And the IC50 ([3]; HT-29, HT29/Mit, after 72 hours of treatment, range stated for the group, read-out: IC50 values in the resistant line)?
Its IC50 is 0.1 to 3 µM.

What about the IC50 ([3]; HT-29/Mit resistant line, 72 h treatment, read-out: Antiproliferative activity (IC50 ± S.D.) HT-29/Mit) of the same molecule?
The IC50 was 1 ± 0.9 µM.

What about the IC50 [4] of the same molecule?
Its IC50 is 24.4 ± 7.9 µM.

What about the “antitumoral efficacy of combined administration with topotecan” value ([5]; 30 mg/kg p.o. with topotecan 1 or 2 mg/kg p.o., statistically significant with 1 mg topotecan) of the same molecule?
The value was “increased antitumoral efficacy”.

What about the tumor growth inhibition ([5]; administered alone, 30 mg/kg p.o., after 7 days of treatment, statistically significant) of the same molecule?
The tumor growth inhibition was 43%.

From patent US20070248672A1, “Indole and Azaindole Derivatives with Antitumor Action” (priority 2004, published 2007)
